The values below come from patent EP3782997A1, “FUSED PYRIMIDINE COMPOUNDS AND PHARMACEUTICAL COMPOSITIONS THEREOF FOR THE TREATMENT OF FIBROTIC DISEASES” (Galapagos N.V., priority 2019, dated 2021).

Bounds are passed on as bounds.

This assay addresses hENPP2 (Homo sapiens, UniProt Q13822). Briefly: Human ENPP2 (hENPP2) biochemical assay using LPC as substrate. As to conditions: 150 µM LPC (palmitoyl 16:0), 37°C for 30 min. Here is the method:
The principle of the assay conswasts in quantifying the released choline with an enzymatic method using choline oxidase and peroxidase. Choline oxydation by choline oxydase releases betaine and peroxide. The latter was quantified in presence of HRP that converts the peroxide detection agent TOOS (CAS# 82692-93-1) and 4-aminoantipyrine into quinoneimine dye. The appearance of quinoneimine dye was measured spectrophotometrically at 555 nm and was proportional to the amount of choline released by ENPP2. Inhibition of ENPP2 results in a decrease of the signal.
Compound IC50 values were determined in a hENPP2 (UniProtKB/SwwassProt Sequence ref Q13822) biochemical assay using LPC as substrate.
5 µL of a dilution series of compound, starting from 50 µM highest concentration, 1/3 dilution, was added to the wells. hENPP2 was used at a final concentration of 1 µg/mL or 3 µg/mL (it will be appreciated by the skilled person that the potency read out was independent of the enzyme concentration). The enzyme was diluted in 50 mM Trwas-HCl pH 8.5, 500 mM NaCl, 5 mM KCl, 10 mM CaCl2, 0.1% fatty acid free BSA in a total volume of 10 µL. The reaction was started by the addition of 10 µL of 150 µM LPC (palmitoyl 16:0; Avanti Polar Lipids, Inc., Cat# 855675) diluted in the same buffer as described above and the mixture was incubated at 37°C for 30 min. The reaction was terminated and choline quantified by the addition of a 25 µL of a mixture containing 0.6 U/mL of choline oxidase, 0.6 U/mL of peroxydase, 1.8 mM TOOS, 1.2 mM amino-antipyrine, 20 mM EGTA (stop-developer solution) diluted in the buffer described above. […] was read on an Envision plate reader (PerkinElmer, Inc.) after an incubation of 30 min at room temperature (excitation 555 nm).
As usually defined, the IC50 is the concentration at which inhibition is half-maximal. High values mean lower potency, low ones higher potency. Compound `Cc1cc(C)cc(Nc2ncc3c(n2)CN(C2CCN(C(=O)c4ccc5[nH]c(=O)oc5c4)CC2)C3)c1` [compound 11, 6-[4-[2-(3,5-dimethylanilino)-5,7-dihydropyrrolo[3,4-d]pyrimidin-6-yl]piperidine-1-carbonyl]-3H-1,3-benzoxazol-2-one] displayed an IC50 of 0.01 to 100 nM.
As for `Cc1cc(C)cc(Nc2ncc3c(n2)CN(C2CCN(C(=O)c4ccc5[nH]c(=O)oc5c4)C2)C3)c1` (stereo not drawn) [compound 12, 6-[3-[2-(3,5-dimethylanilino)-5,7-dihydropyrrolo[3,4-d]pyrimidin-6-yl]pyrrolidine-1-carbonyl]-3H-1,3-benzoxazol-2-one], the figure is 0.01 to 100 nM.
In the case of `Cc1cc(C)cc(Nc2ncc3c(n2)CN(C2CCN(C(=O)c4ccc5[nH]nnc5c4)C2)C3)c1` (stereo not drawn) [compound 13, 1H-benzotriazol-5-yl-[3-[2-(3,5-dimethylanilino)-5,7-dihydropyrrolo[3,4-d]pyrimidin-6-yl]pyrrolidin-1-yl]methanone] it was 100 to 500 nM; in that of `O=C(c1ccc2[nH]c(=O)oc2c1)N1CC(N2CCc3nc(Nc4cc(Cl)cc(C(F)(F)F)c4)ncc3C2)C1` [compound 14, 6-[3-[2-[3-chloro-5-(trifluoromethyl)anilino]-7,8-dihydro-5H-pyrido[4,3-d]pyrimidin-6-yl]azetidine-1-carbonyl]-3H-1,3-benzoxazol-2-one], 0.01 to 100 nM; in that of `Cc1cc(Cl)cc(Nc2ncc3c(n2)CCN(C2CN(C(=O)c4ccc5[nH]c(=O)oc5c4)C2)C3)c1` [compound 15, 6-[3-[2-(3-chloro-5-methyl-anilino)-7,8-dihydro-5H-pyrido[4,3-d]pyrimidin-6-yl]azetidine-1-carbonyl]-3H-1,3-benzoxazol-2-one], 0.01 to 100 nM.
In the case of `Cc1cc(Cl)cc(Nc2ncc3c(n2)CCN(C2CN(C(=O)c4ccc5[nH]nnc5c4)C2)C3)c1` [compound 16, 1H-benzotriazol-5-yl-[3-[2-(3-chloro-5-methyl-anilino)-7,8-dihydro-5H-pyrido[4,3-d]pyrimidin-6-yl]azetidin-1-yl]methanone], the IC50 lay within 100 to 500 nM.
In the case of `O=C(c1ccc2[nH]c(=O)oc2c1)N1CC(N2Cc3cnc(Nc4cc(Cl)cc(C(F)(F)F)c4)nc3C2)C1` [compound 17, 6-[3-[2-[3-chloro-5-(trifluoromethyl)anilino]-5,7-dihydropyrrolo[3,4-d]pyrimidin-6-yl]azetidine-1-carbonyl]-3H-1,3-benzoxazol-2-one], the half-maximal inhibitory concentration (IC50) is 0.01 to 100 nM.
In the case of `Cc1cc(C)cc(Nc2ncc3c(n2)CN(C2CN(C(=O)c4ccc5[nH]nnc5c4)C2)C3)c1` [compound 18, 1H-benzotriazol-5-yl-[3-[2-(3,5-dimethylanilino)-5,7-dihydropyrrolo[3,4-d]pyrimidin-6-yl]azetidin-1-yl]methanone] it was 0.01 to 100 nM; in that of `Cc1cc(C)cc(Nc2ncc3c(n2)CN(C2CN(C(=O)c4ccc5[nH]ncc5c4)C2)C3)c1` [compound 19, [3-[2-(3,5-dimethylanilino)-5,7-dihydropyrrolo[3,4-d]pyrimidin-6-yl]azetidin-1-yl]-(1H-indazol-5-yl)methanone], 100 to 500 nM; in that of `Cc1cc(C)cc(Nc2ncc3c(n2)CN(C2CN(C(=O)c4cccc(S(N)(=O)=O)c4)C2)C3)c1` [compound 20, 3-[3-[2-(3,5-dimethylanilino)-5,7-dihydropyrrolo[3,4-d]pyrimidin-6-yl]azetidine-1-carbonyl]benzenesulfonamide], > 1000 nM.
`COc1cc(Nc2ncc3c(n2)CN(C2CN(C(=O)c4ccc5[nH]c(=O)oc5c4)C2)C3)cc(OC)c1` [compound 21, 6-[3-[2-(3,5-dimethoxyanilino)-5,7-dihydropyrrolo[3,4-d]pyrimidin-6-yl]azetidine-1-carbonyl]-3H-1,3-benzoxazol-2-one] gave an IC50 of 0.01 to 100 nM.
In the case of `O=C(c1ccc2[nH]nnc2c1)N1CC(N2Cc3cnc(Nc4cc(Cl)cc(C(F)(F)F)c4)nc3C2)C1` [compound 22, 1H-benzotriazol-5-yl-[3-[2-[3-chloro-5-(trifluoromethyl)anilino]-5,7-dihydropyrrolo[3,4-d]pyrimidin-6-yl]azetidin-1-yl]methanone], the IC50 was 0.01 to 100 nM.
Take `COc1cc(C)cc(Nc2ncc3c(n2)CN(C2CN(C(=O)c4ccc5[nH]nnc5c4)C2)C3)c1` [compound 24, 1H-benzotriazol-5-yl-[3-[2-(3-methoxy-5-methyl-anilino)-5,7-dihydropyrrolo[3,4-d]pyrimidin-6-yl]azetidin-1-yl]methanone]: the IC50 was in the range of 0.01 to 100 nM.
In the case of `Cc1cc(C)cc(Nc2ncc3c(n2)CN(C2CN(C(=O)c4ccc(=O)[nH]c4)C2)C3)c1` [compound 26, 5-[3-[2-(3,5-dimethylanilino) -5,7-dihydropyrrolo[3,4-d]pyrimidin-6-yl]azetidine-1-carbonyl]-1H-pyridin-2-one], the IC50 was > 1000 nM.
As for `COc1cc(Nc2ncc3c(n2)CN(C2CCN(C(=O)c4ccc5[nH]nnc5c4)CC2)C3)cc(OC)c1` [compound 27, 1H-benzotriazol-5-yl-[4-[2-(3,5-dimethoxyanilino)-5,7-dihydropyrrolo[3,4-d]pyrimidin-6-yl]-1-piperidyl]methanone], the figure is 100 to 500 nM; as for `Cc1cc(Nc2ncc3c(n2)CN(C2CN(C(=O)c4ccc5[nH]c(=O)oc5c4)C2)C3)cc(C(F)(F)F)c1` [compound 28, 6-[3-[2-[3-methyl-5-(trifluoromethyl)anilino]-5,7-dihydropyrrolo[3,4-d]pyrimidin-6-yl]azetidine-1-carbonyl]-3H-1,3-benzoxazol-2-one], 0.01 to 100 nM; as for `Cc1cc(Nc2ncc3c(n2)CN(C2CN(C(=O)c4ccc5nn[nH]c5c4)C2)C3)cc(C(F)(F)F)c1` [compound 29, 3H-benzotriazol-5-yl-[3-[2-[3-methyl-5-(trifluoromethyl)anilino]-5,7-dihydropyrrolo[3,4-d]pyrimidin-6-yl]azetidin-1-yl]methanone], 0.01 to 100 nM.
As for `O=C(c1ccc2[nH]nnc2c1)N1CC(N2Cc3cnc(Nc4ccc(C(F)(F)F)cc4)nc3C2)C1` [compound 30, 1H-benzotriazol-5-yl-[3-[2-[4-(trifluoromethyl)anilino]-5,7-dihydropyrrolo[3,4-d]pyrimidin-6-yl]azetidin-1-yl]methanone], the figure is 0.01 to 100 nM; as for `COc1cc(Nc2ncc3c(n2)CN(C2CN(C(=O)c4ccc5[nH]nnc5c4)C2)C3)cc(OC)c1` [compound 31, 1H-benzotriazol-5-yl-[3-[2-(3,5-dimethoxyanilino)-5,7-dihydropyrrolo[3,4-d]pyrimidin-6-yl]azetidin-1-yl]methanone], 0.01 to 100 nM.
In the case of `Cc1cc(C)cc(Nc2ncc3c(n2)CN(C2CN(C(=O)c4cc[nH]c(=O)c4)C2)C3)c1` [compound 32, 4-[3-[2-(3,5-dimethylanilino)-5,7-dihydropyrrolo[3,4-d]pyrimidin-6-yl]azetidine-1-carbonyl]-1H-pyridin-2-one], the IC50 is > 1000 nM.
With `Cc1cc(C)cc(Nc2ncc3c(n2)CN(C2CCCN(C(=O)c4ccc5[nH]nnc5c4)C2)C3)c1` (stereo not drawn) [compound 33, 1H-benzotriazol-5-yl-[3-[2-(3,5-dimethylanilino)-5,7-dihydropyrrolo[3,4-d]pyrimidin-6-yl]-1-piperidyl]methanone], the IC50 is > 1000 nM.
